Measured values published in patent US20180362543A1, “HIV REPLICATION INHIBITOR” (Shionogi & Co., Ltd., priority 2013, published 2018).

Columns and labels:
[1] = test system: HIV (HTLV-III B strain); experiment: HIV replication inhibition assay (MTT, MT-4 cells); format: cell-based; details: 4 days culture, concentration at which cell cytotoxicity by virus is inhibited 50%
In short: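 MT-4 cells (2.5×10^4/well) infected with HTLV-III B stock (60 pfu) in presence of compound, cultured four days at 37 °C. Viability by MTT reduction, formazan read at 560 and 690 nm. EC50 is concentration inhibiting virus-induced cytotoxicity by 50%.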

[2] = molecular target: T1, human ether-a-go-go related gene (hERG) channel (Homo sapiens, UniProt Q12809); experiment: hERG test (whole cell patch clamp, IKr); format: cell-based; details: HEK293 cells expressing hERG channel, concentration not given
T1 construct: expressed in transfected cells; host or cells: HEK293
Description: For the purpose of assessing risk of an electrocardiogram QT interval prolongation, effects on delayed rectifier K+ current (IKr), which plays an important role in the ventricular repolarization process of the compound of the present invention, was studied using HEK293 cells expressing human ether-a-go-go related gene (hERG) channel.
After a cell was retained at a membrane potential of −80 mV by whole cell patch clamp method using an automated patch clamp system (PatchXpress 7000A, Axon Instruments Inc.), IKr induced by depolarization pulse stimulation at +40 mV for 2 seconds and, further, repolarization pulse stimulation at −50 mV for 2 seconds was recorded. […] From the recording IKr, an absolute value of the tail peak current was measured based on the current value at the resting membrane potential using an analysis software (DataXpress ver. 1, Molecular Devices Corporation). Further, the inhibition relative to the tail peak current before application of the test substance was calculated, and compared with the vehicle-applied group (0.1% dimethyl sulfoxide solution) to assess influence of the test substance on IKr.

[3] = molecular target: T2, CYP1A2 (Homo sapiens, UniProt P05177); experiment: CYP inhibition assay, CYP1A2 (7-ethoxyresorufin O-deethylation); format: in vitro ADME; details: pooled human hepatic microsome, 15 minutes, 37° C.
T2 construct: enzyme, pooled human hepatic microsome 0.2 mg protein/mL; from tissue; host or cells: pooled human liver microsomes
T2 sequence (P05177 1-516): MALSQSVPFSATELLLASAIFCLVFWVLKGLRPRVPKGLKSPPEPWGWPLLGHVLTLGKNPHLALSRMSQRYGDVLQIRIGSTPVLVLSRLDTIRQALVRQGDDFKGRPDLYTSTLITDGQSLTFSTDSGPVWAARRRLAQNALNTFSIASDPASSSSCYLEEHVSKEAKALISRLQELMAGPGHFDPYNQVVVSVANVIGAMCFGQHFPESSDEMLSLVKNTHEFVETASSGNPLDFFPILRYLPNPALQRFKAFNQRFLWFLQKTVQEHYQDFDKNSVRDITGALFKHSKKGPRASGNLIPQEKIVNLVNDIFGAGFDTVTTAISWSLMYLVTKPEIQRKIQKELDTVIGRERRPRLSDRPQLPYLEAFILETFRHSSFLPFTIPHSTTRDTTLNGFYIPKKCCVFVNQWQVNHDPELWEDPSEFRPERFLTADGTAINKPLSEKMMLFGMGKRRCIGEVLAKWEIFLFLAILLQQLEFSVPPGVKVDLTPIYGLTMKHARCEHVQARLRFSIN
Protocol: (§1) Using commercially available pooled human hepatic microsome, and employing, as markers, 7-ethoxyresorufin O-deethylation (CYP1A2), tolbutamide methyl-hydroxylation (CYP2C9), mephenytoin 4′-hydroxylation (CYP2C19), dextromethorphan O-demethylation (CYP2D6), and terfenedine hydroxylation (CYP3A4) as typical substrate metabolism reactions of human main five CYP enzyme forms (CYP1A2, 2C9, 2C19, 2D6, 3A4), an inhibitory degree of each metabolite production amount by a test compound was assessed. […]
(§2) Each five kinds of substrates, human hepatic microsome, and a test drug in 50 mmol/L Hepes buffer as a reaction solution was added to a 96-well plate as the composition as described above, NADPH, as a cofactor was added to initiate metabolism reactions as markers and, after the incubation at 37° C. for 15 minutes, a methanol/acetonitrile=1/1 (v/v) solution was added to stop the reaction. After the centrifugation at 3000 rpm for 15 minutes, resorufin (CYP1A2 metabolite) in the supernatant was quantified by a fluorescent multilabel counter and tolbutamide hydroxide (CYP2C9 metabolite), mephenytoin 4′ hydroxide (CYP2C19 metabolite), dextrorphan (CYP2D6 metabolite), and terfenadine alcohol (CYP3A4 metabolite) were quantified by LC/MS/MS. […]

[4] = molecular target: T3, CYP2C19 (Homo sapiens, UniProt P33261); experiment: CYP inhibition assay, CYP2C19 (mephenytoin 4'-hydroxylation); format: in vitro ADME; details: pooled human hepatic microsome, 15 minutes, 37° C.
T3 construct: enzyme, pooled human hepatic microsome 0.2 mg protein/mL; from tissue; host or cells: pooled human liver microsomes
Protocol: as §1, §2

[5] = molecular target: T4, CYP2D6 (Homo sapiens, UniProt P10635); experiment: CYP inhibition assay, CYP2D6 (dextromethorphan O-demethylation); format: in vitro ADME; details: pooled human hepatic microsome, 15 minutes, 37° C.
T4 construct: enzyme, pooled human hepatic microsome 0.2 mg protein/mL; from tissue; host or cells: pooled human liver microsomes
Protocol: as §1, §2

[6] = Solubility test (1% DMSO, artificial intestinal juice pH 6.8); format: physicochemical; details: pH 6.8, 1% DMSO, 16 hours at 25° C.
Protocol: The solubility of each compound was determined under 1% DMSO addition conditions. A 10 mmol/L solution of the compound was prepared with DMSO, and 6 μL of the solution was added to 594 μL of an artificial intestinal juice (:water and a 118 mL solution of 0.2 mol/L NaOH reagent are added to 250 mL of 0.2 mol/L potassium dihydrogen phosphate reagent to reach 1000 mL) with a pH of 6.8. The mixture is left standing for 16 hours at 25° C., and the mixture is vacuum-filtered. The filtrate is two-fold diluted with methanol/water=1/1 (v/v), and the compound concentration in the filtrate is measured with HPLC or LC/MS/MS by the absolute calibration method.

[7] = format: in vitro ADME; details: 0 h
[8] = molecular target: T5, CYP3A4 (Homo sapiens, UniProt P08684); experiment: CYP inhibition assay, CYP3A4 (terfenedine hydroxylation); format: in vitro ADME; details: pooled human hepatic microsome, 15 minutes, 37° C.
T5 construct: enzyme, pooled human hepatic microsome 0.2 mg protein/mL; from tissue; host or cells: pooled human liver microsomes
Protocol: as §1, §2

[9] = test system: Salmonella typhimurium TA98 strain, TA100 strain; details: Salmonella typhimurium TA98 and TA100, with and without metabolism activating condition
Protocol: The mutagenicity of the compound of the present invention was assayed.
20 μL of freezing-stored rat typhoid bacillus (Salmonella typhimurium TA98 strain, TA100 strain) was inoculated on 10 mL of a liquid nutrient medium (2.5% Oxoid nutrient broth No. 2), and this was cultured before shaking at 37° C. for 10 hours. 9 mL of a bacterial solution of the TA98 strain was centrifuged (2000×g, 10 minutes) to remove a culturing solution. The bacteria was suspended in F buffer (K2HPO4: 3.5 g/L, KH2PO4: 1 g/L, (NH4)2SO4: 1 g/L, trisodium citrate dehydrate: 0.25 g/L, MgSO4.7H2O: 0.1 g/L), and the suspension was added to 110 mL of an Exposure medium (Micro F buffer containing Biotin: 8 μg/mL, histidine: 0.2 μg/mL, glucose: 8 mg/mL). The TA100 strain was added to 120 mL of the Exposure medium per 3.16 mL of the bacterial solution to prepare a test bacterial solution. […] Since a well containing a bacterium which has obtained the proliferation ability by mutation of an amino acid (histidine) synthesizing enzyme gene turns from purple to yellow due to a pH change, the bacterium proliferation well which has turned to yellow in 48 wells per dose is counted, and was assessed by comparing with a negative control group. […]

T3 sequence (P33261 whole entry): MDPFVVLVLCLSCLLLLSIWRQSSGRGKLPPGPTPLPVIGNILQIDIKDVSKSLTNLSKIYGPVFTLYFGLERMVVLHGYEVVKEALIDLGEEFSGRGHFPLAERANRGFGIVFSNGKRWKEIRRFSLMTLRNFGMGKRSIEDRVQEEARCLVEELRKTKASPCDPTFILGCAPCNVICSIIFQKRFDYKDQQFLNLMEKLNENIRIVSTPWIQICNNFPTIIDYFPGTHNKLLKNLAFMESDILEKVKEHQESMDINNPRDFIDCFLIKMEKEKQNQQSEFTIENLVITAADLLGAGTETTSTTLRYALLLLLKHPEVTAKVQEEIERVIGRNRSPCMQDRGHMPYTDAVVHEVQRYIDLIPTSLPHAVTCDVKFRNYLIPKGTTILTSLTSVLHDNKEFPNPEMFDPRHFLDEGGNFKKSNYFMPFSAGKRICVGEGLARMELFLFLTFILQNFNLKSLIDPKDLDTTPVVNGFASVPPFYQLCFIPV
T5 sequence (P08684 whole entry): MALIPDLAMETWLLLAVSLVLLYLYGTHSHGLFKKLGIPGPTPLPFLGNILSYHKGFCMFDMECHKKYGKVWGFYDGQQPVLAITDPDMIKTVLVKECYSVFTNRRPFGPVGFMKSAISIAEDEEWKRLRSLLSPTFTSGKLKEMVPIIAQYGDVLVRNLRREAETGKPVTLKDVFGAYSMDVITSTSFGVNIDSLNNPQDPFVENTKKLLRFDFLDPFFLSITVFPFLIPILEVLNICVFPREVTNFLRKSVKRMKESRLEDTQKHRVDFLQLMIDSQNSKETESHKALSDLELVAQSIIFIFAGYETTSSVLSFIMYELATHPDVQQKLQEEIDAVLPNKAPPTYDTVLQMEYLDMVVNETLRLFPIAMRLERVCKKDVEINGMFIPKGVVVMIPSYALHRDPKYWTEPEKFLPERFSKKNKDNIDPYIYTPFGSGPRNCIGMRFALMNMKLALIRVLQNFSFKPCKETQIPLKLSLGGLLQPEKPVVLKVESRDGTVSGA
T4 sequence (P10635 whole entry): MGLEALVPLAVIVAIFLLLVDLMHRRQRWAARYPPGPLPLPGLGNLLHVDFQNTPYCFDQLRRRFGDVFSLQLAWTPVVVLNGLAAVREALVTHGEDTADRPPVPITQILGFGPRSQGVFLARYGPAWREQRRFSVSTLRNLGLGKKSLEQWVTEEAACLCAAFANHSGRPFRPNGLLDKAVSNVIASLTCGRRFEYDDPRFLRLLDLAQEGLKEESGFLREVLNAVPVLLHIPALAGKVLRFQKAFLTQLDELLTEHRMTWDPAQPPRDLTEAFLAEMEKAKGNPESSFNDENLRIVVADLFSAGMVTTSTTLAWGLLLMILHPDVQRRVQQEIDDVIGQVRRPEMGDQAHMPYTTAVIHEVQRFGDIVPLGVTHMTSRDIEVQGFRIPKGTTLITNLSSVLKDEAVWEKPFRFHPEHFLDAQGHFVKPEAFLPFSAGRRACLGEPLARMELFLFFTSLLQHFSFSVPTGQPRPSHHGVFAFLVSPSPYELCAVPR
T1 sequence (Q12809 whole entry): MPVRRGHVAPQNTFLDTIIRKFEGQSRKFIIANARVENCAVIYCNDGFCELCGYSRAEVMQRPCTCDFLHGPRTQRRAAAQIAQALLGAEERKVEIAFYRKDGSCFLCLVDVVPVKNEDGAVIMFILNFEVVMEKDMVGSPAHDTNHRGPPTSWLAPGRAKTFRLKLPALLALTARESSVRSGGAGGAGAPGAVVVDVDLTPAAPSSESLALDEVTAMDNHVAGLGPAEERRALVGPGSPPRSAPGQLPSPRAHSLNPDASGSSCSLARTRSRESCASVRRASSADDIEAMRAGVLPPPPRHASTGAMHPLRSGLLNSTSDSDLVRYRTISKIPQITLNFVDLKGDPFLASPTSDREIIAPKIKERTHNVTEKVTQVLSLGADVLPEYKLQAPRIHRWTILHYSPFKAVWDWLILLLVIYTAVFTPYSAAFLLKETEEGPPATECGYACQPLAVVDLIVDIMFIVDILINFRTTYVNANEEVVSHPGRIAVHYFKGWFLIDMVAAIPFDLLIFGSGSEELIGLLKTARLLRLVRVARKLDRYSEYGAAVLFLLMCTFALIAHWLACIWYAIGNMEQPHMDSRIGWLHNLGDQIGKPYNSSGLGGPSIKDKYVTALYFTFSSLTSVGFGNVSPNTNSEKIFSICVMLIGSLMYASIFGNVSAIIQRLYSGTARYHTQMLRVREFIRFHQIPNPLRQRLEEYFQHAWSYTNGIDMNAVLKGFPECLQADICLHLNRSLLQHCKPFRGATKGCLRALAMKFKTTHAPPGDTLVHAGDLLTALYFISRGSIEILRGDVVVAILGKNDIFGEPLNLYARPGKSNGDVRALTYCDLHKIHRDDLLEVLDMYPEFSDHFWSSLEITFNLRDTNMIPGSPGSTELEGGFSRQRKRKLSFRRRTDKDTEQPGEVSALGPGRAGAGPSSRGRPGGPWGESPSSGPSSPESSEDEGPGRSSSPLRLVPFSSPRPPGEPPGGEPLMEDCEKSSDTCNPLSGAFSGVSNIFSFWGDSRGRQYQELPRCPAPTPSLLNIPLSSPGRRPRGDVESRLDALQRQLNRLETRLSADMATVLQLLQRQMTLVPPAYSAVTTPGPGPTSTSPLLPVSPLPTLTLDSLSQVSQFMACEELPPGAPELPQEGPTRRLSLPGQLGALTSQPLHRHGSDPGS

## Cc1c2c(c(C)c(C(OC(C)(C)C)C(=O)O)c1-c1ccc3c(c1)CCCO3)NC(=O)N(Cc1ccccc1)C2 (stereo not shown) [Compound 7]
[1]
  EC50: 0.0096 µM
[2]
  inhibition ratio (hERG, IKr tail peak current): 2.6%

## Cc1c(-c2c(C)c3c(c(C)c2[C@H](OC(C)(C)C)C(=O)O)NS(=O)(=O)Cc2ccccc2-3)ccc2c1CCCO2 [Compound 10]
[3]
  IC50: ≥ 20 µM
[4]
  IC50: ≥ 20 µM
[5]
  IC50: ≥ 20 µM
[6]
  solubility in the artificial intestinal juice: ≥ 50 µM
[7]
  remaining amount of compound in liver microsomes of rat: 91%
[1]
  EC50: 0.0024 µM
[8]
  IC50: ≥ 20 µM
[9]
  mutagenicity: negative
